Data taken from US20050038058A1, “Novel compounds and methods for therapy” (Institute of Organic Chemistry and Biochemistry, priority 2001, published 2005).
Values after ≈ are worked out from the molar mass of the structure shown.

Key:
[1] = system: CEM cells; experiment: Incorporation of [3H]thymidine, [3H]uridine and [3H]leucine into CEM cell material; format: cell-based; details: 200 μg/mL; 12 hour incubation period
Method: The incorporation of [methyl-^3H]thymidine, [^3H]uridine and [^3H]leucine into the methanol-insoluble CEM cell fraction was also measured in microplates. To each well were added 10^5 CEM cells, 5.9 pmol (0.25 μCi) of [methyl-^3H]thymidine, 38 pmol (1.0 μCi) of [^3H]uridine and 19 pmol (1.0 μCi) [4,5-^3H]leucine, and a given amount of the test compound. […] At the end of this incubation period, the contents of the wells (200 μl) were brought onto 25-mm glass fiber filters (type A/G; Gelman Instrument Co., Ann Arbor, Mich.) mounted on a Millipore 3025 sampling manifold apparatus. The filters were washed twice with cold PBS (phosphate-buffered saline), twice with cold 10% trichloroacetic acid, twice with cold 5% trichloroacetic acid, once with cold ethanol, and once with cold ether. The filters were then allowed to dry for 10 min at 60° C. and assayed for radioactivity in a toluene-based scintillant.

[2] = system: MT-4 cells; experiment: MT-4 cell toxicity (trypan blue exclusion); format: cell-based; details: reduction of cell viability; Table 2
Method: Cytostatic and antimetabolic effect of acyclic nucleoside phosphonates in vitro. The assays to examine the inhibition of CEM cell growth by the test compounds have been described previously (Balzarini et al., AIDS 5:21-28, 1991). The 50% cytostatic concentration (CC50) was defined as the concentration of compound that reduced the number of living cells by 50% . To measure MT-4 cell toxicity of the test compounds, 5×10^4 MT-4 cells were incubated in the wells of 96-well microplates in the presence or absence of different concentrations of the test compounds for 5 days at 37° C. The CC50 was then calculated from the number of living cells counted under a microscope by the trypan blue exclusion method.

[3] = system: CrFK cells; experiment: Toxicity in CrFK cells; format: cell-based, feline; details: Table 2
[4] = system: HIV-1(IIIB); experiment: HIV-1(IIIB)-induced cytopathicity in CEM cell cultures; format: cell-based; details: for EC50 as such / EC50 upon addition of Ade (100 μM) / EC50 upon addition of Ado (400 μM) / EC50 upon addition of Guo (10 μM) / EC50 upon addition of dCyd (1 mM) / EC50 upon addition of dThd (10 μM): HIV-1 (IIIB) in CEM; for EC50 as such: no addition, Table 3; for EC50 HIV-1 (CEM): HIV-1(IIIB)-induced cytopathicity in CEM cell cultures, Table 1; for EC50 HIV-1 (IIIB) (CEM): giant cell formation, mean ±SD of 2 to 4 experiments, Table 2
Procedure, shortened: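 Protection against cytopathicity caused by HIV-1 strain IIIB was measured in CEM cell cultures. The IIIB stock came from supernatants of infected MT-4 cell cultures, and virus was added to the cultures at 100 CCID50. At day 4 to 5 post infection, virus-induced giant cell formation was examined microscopically, and the EC50 was derived from this.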

[5] = system: CEM cells; experiment: Inhibition of CEM cell growth (cytostatic activity); format: cell-based
Procedure, shortened: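 MT-4 cells (5×10^4/well) exposed to compound dilutions for 5 days at 37 °C; CC50 = concentration cutting living cells by 50%, counted microscopically with trypan blue exclusion. CEM cytostatic CC50 defined likewise, by a previously described method.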

[6] = system: PBL; experiment: Cell viability in PBL; format: cell-based; details: reduction of cell viability; Table 2
[7] = system: HIV-1(IIIB); experiment: HIV-1(IIIB) p24 antigen production in PBL (PHA-stimulated PBMC); format: cell-based
Method: Peripheral blood mononuclear cells (PBMC) from healthy donors were isolated by density centrifugation (Lymphoprep; Nycomed Pharma, AS Diagnostics, Oslo, Norway) and stimulated with phytohemagglutin (PHA) (Sigma Chemical Co., Bornem, Belgium) for 3 days. The activated cells (PHA-stimulated blasts) were washed with PBS and viral infections were done as described by the AIDS clinical trial group protocols. Briefly, PBMCs (2×10^5/200 well) were plated in the presence of serial dilutions of the test compound and were infected with HIV stocks at 1000 CCID50 per mL. At day 4 post-infection, 125 μl of the supernatant of the infected cultures was removed and replaced with 150 μl of fresh medium containing the test compounds at the appropriate concentrations. At 7 days after plating the cells, p24 antigen was detected in the culture supernatant by an enzyme-linked immunosorbent assay (NEN, Paris, France).

[8] = system: HIV-2(ROD); experiment: HIV-2(ROD)-induced cytopathicity in CEM cell cultures; format: cell-based; details: giant cell formation; Table 2
Description: Viruses. The origins of MSV, HIV type 1 (HIV-1) (strain IIIB and Ba-L), HIV-2 (strain ROD) and FIV (strain Petaluma) have been described previously (Balzarini et al., AIDS 5: 21-28, 1991; De Clercq et al., Proc. Soc. Exp. Biol. Med. 137:590-594, 1971; Egberink et al., Proc. Natl. Acad. Sci. 87:3087-3091, 1990; Hartmann et al., Antiviral Chem. Chemother. 5:13-19, 1994; Popovic et al., Science 224:497-500, 1984). HIV-1(IIIB) and HIV-2(ROD) stocks were obtained from supernatants of virus-infected MT-4 cell cultures. HIV-1BaL was expanded in human primary M/M, whose supernatants were collected, filtered and stored at −80° C. before use. Characteristics of viral stocks used for this study were 2.1×10^8 HIV-RNA genomes/ml (corresponding to 35 ng of p24 antigen) and 5,000 tissue culture infectious doses 50% per ml (TCID50/ml) as assessed by virus titration in other primary M/M cultures. The isolation and characterization of the clinical HIV-1 isolates L1S, L6S and L6S/PMEA has been reported (Thormar et al., Proc. Natl. Acad. Sci. USA 93:3283-3287, 1995; Van Laethem et al., AIDS 15:553-561, 2001). […] HIV-1/L6S/PMEA is the clinical isolate HIV-1/L6S that has been isolated after culturing the virus for 11 passages in the presence of increasing concentrations of PMEA (adefovir).
(§1) In vitro antiviral assays. The activity against HIV-1- and HIV-2-induced cytopathicity was examined in MT-4 cell cultures at day 5 post infection and based on the determination of cell viability by trypan blue dye staining or in CEM cell cultures at day 4 to 5 post infection and based on the microscopical examination of virus-induced giant cell formation. HIV-1 and HIV-2 were added at 100 CCID50 to the cell cultures.

[9] = system: C3H cells; experiment: Alteration of C3H cell morphology (minimal inhibitory concentration); format: cell-based, murine; details: for CC50 C3H (minimal inhibitory concentration): microscopically visible alteration of cell morphology, > means no visible toxicity at the indicated concentration
[10] = system: HIV; experiment: Anti-HIV activity across HIV-1 and HIV-2 in CEM and MT-4 cell cultures; format: cell-based; details: HIV-1 and HIV-2 in CEM and MT-4 cells
Method: as §1

[11] = system: HIV-1(IIIB) strains containing L100I, K103N, Y181C and Y188H mutations in the RT; experiment: HIV-1(IIIB) strains with NNRTI-specific RT mutations in CEM cell cultures; format: cell-based; details: data not shown
Method: as §1

[12] = 50% cytostatic concentration, CEM cell proliferation, Table 1
[13] = inhibition of cell proliferation, Table 2

| SMILES | Inhibition of [3H]dThd, [3H]Urd and [3H]leu incorporation into TCA-insoluble CEM cell material (macromolecular synthesis) [1] | CC50 MT-4 [2] | CC50 CrFK [3] [µg/mL] | EC50 as such [4] [µg/mL] | EC50 upon addition of Ade (100 μM) [4] [µg/mL] | EC50 upon addition of Ado (400 μM) [4] [µg/mL] | EC50 upon addition of Guo (10 μM) [4] [µg/mL] | EC50 upon addition of dCyd (1 mM) [4] [µg/mL] | EC50 upon addition of dThd (10 μM) [4] [µg/mL] | EC50 HIV-1 (CEM) [4] [µg/mL] | EC50 HIV-1 (IIIB) (CEM) [4] [µg/mL] | CC50 (CEM) [5, 12] [µg/mL] | CC50 (CEM) [5, 13] [µg/mL] | CC50 PBL [6] [µg/mL] | EC50 HIV-1(IIIB) in PBL [7] [µg/mL] | EC50 HIV-2 (ROD) (CEM) [8] [µg/mL] | CC50 C3H (minimal inhibitory concentration) [9] [µg/mL] | other results |
| --- | --- | --- | --- | --- | --- | --- | --- | --- | --- | --- | --- | --- | --- | --- | --- | --- | --- | --- |
| C[C@H](Cn1cnc2c(N)ncnc21)OCP(=O)(O)O [(R)-PMPA, (R)-9-[(2-phosphonomethoxy)-propyl]adenine, reference compound] | not inhibitory | 72 ± 12 µg/mL (≈ 251 µM) | >100 | 0.57 ± 0.26 (≈ 1.98 µM) | 1.6 ± 1.6 | 0.46 ± 0.23 | 0.43 ± 0.0 | 0.53 ± 0.26 | 0.43 ± 0.0 | 0.36 (≈ 1.25 µM) | 0.36 ± 0.24 (≈ 1.25 µM) | 125 (≈ 435 µM) | 125 ± 26 (≈ 435 µM) | >100 | 0.33 (≈ 1.15 µM) | 0.43 ± 0.41 (≈ 1.5 µM) | >200 | EC50 HIV-1 (IIIB) (PBL) ([7]; p24 antigen production, Table 2): 0.09 ± 0.03 µg/mL (≈ 0.313 µM); EC50 values for HIV (range over virus/cell systems) [10]: 0.36 to 0.52 µg/mL |
| C[C@H](COc1cc(N)nc(N)n1)OCP(=O)(O)O [Compound 11, 2,4-diamino-6-(R)-[2-(phosphonomethoxy)propoxy]pyrimidine] | Neither compounds 1 nor 2, nor compound 11 were inhibitory | ≧100 μg/ml | >100 | 1.2 ± 0.25 (≈ 4.31 µM) | 0.35 ± 0.17 | 1.5 ± 0.70 | 0.77 ± 0.38 | 1.1 ± 0.51 | 0.83 ± 0.35 | 1.8 (≈ 6.47 µM) | 1.9 ± 0.5 (≈ 6.83 µM) | 62 (≈ 223 µM) | 62 ± 25 (≈ 223 µM) | 9.6 ± 2.5 (≈ 34.5 µM) | 0.12 (≈ 0.431 µM) | 1.3 ± 0.4 (≈ 4.67 µM) | > 40 | Antiretroviral (anti-HIV-1) activity in CEM cell cultures, in words [4]: markedly more inhibitory; Activity against NNRTI-specific mutant virus strains, in words [11]: retained full activity; CC50 for CEM cells [5]: around 60 μg/mL; Compound concentration at which morphological toxicity was observed, C3H (value between parentheses) ([9]; Table 2, footnote c): 200 μg/ml |
